Source: ChEMBL document CHEMBL3046285, “Design and synthesis of new 1,2-diaryl-4,5,6,7-tetrahydro-1H-benzo[d] imidazoles as selective cyclooxygenase (COX-2) inhibitors” (Med Chem Res, 2012)

Molecular target: T1, Prostaglandin G/H synthase 1 (Ovis aries, UniProt P05979)
T1 sequence (P05979 whole entry): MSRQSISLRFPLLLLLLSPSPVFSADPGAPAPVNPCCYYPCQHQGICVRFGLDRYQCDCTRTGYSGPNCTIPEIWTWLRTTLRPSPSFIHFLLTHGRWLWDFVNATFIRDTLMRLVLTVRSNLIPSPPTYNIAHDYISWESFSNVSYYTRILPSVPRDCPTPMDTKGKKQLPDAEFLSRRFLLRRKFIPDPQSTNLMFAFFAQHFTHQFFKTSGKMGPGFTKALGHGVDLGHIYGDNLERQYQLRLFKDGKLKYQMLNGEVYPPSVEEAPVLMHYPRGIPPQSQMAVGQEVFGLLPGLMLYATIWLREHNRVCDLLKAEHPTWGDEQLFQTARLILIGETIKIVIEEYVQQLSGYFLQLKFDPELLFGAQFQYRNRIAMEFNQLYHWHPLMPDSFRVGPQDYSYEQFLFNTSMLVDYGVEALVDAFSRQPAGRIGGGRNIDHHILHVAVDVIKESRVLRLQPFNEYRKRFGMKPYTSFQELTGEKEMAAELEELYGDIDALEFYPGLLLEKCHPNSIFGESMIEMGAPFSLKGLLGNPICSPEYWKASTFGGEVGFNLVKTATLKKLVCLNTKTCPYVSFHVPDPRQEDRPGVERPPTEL
Assay: Inhibition of Ovis aries (sheep) COX1 using arachidonic acid as substrate using cyclic naphthalene hydrazide by chemiluminescence assay

| IC50 [µM] | Compound |
| --- | --- |
| 40.1 | Cc1ccc(-n2c(-c3ccc(S(C)(=O)=O)cc3)nc3c2CCCC3)cc1 |
| 36.1 | CC(=O)Nc1ccc(-n2c(-c3ccc(S(C)(=O)=O)cc3)nc3c2CCCC3)cc1 |
| 61.6 | CS(=O)(=O)c1ccc(-c2nc3c(n2-c2ccc(Cl)cc2)CCCC3)cc1 |

Further lines, the compound ahead of its results:

| Compound | IC50 [µM] |
| --- | --- |
| CS(=O)(=O)c1ccc(-c2nc3c(n2-c2ccccc2)CCCC3)cc1 | 56.5 |
| COc1ccc(-n2c(-c3ccc(S(C)(=O)=O)cc3)nc3c2CCCC3)cc1 | 42.2 |
| CS(=O)(=O)c1ccc(-c2nc3c(n2-c2ccc(F)cc2)CCCC3)cc1 | 55.7 |
